Results published in patent US5234922A, “Use of sulfonylureas and other potassium channel regulators to treat secretory diarrhea” (University of Iowa Research Foundation, priority 1992, dated 1993).
Counter-ions that a name gives are not always drawn. Like-named read-outs stand apart in the source and are kept apart here.

Molecular target: T1, wild-type human CFTR (Homo sapiens, UniProt P13569)
T1 construct: expressed in transfected cells; host or cells: NIH 3T3 fibroblasts (stably infected with a retrovirus)
Test: Whole-cell patch-clamp recording of cAMP-activated CFTR Cl- currents in NIH 3T3 fibroblasts expressing recombinant CFTR
Assay type: cell-based
Conditions: for effect on baseline currents: before cAMP stimulation, n=3; for inhibition at 1000 µM: 1 mM; for effect on Cl- current previously activated by cAMP agonists: added to the bathing solution after activation; for relative potency of inhibition of CFTR Cl- currents: rank order among K+ channel openers

[1] = NIH3T3, 250 μM, 3 min after adding, currents activated by cAMP agonists
[2] = NIH3T3, 3 min after adding, currents activated by cAMP agonists

T1 sequence (P13569 whole entry): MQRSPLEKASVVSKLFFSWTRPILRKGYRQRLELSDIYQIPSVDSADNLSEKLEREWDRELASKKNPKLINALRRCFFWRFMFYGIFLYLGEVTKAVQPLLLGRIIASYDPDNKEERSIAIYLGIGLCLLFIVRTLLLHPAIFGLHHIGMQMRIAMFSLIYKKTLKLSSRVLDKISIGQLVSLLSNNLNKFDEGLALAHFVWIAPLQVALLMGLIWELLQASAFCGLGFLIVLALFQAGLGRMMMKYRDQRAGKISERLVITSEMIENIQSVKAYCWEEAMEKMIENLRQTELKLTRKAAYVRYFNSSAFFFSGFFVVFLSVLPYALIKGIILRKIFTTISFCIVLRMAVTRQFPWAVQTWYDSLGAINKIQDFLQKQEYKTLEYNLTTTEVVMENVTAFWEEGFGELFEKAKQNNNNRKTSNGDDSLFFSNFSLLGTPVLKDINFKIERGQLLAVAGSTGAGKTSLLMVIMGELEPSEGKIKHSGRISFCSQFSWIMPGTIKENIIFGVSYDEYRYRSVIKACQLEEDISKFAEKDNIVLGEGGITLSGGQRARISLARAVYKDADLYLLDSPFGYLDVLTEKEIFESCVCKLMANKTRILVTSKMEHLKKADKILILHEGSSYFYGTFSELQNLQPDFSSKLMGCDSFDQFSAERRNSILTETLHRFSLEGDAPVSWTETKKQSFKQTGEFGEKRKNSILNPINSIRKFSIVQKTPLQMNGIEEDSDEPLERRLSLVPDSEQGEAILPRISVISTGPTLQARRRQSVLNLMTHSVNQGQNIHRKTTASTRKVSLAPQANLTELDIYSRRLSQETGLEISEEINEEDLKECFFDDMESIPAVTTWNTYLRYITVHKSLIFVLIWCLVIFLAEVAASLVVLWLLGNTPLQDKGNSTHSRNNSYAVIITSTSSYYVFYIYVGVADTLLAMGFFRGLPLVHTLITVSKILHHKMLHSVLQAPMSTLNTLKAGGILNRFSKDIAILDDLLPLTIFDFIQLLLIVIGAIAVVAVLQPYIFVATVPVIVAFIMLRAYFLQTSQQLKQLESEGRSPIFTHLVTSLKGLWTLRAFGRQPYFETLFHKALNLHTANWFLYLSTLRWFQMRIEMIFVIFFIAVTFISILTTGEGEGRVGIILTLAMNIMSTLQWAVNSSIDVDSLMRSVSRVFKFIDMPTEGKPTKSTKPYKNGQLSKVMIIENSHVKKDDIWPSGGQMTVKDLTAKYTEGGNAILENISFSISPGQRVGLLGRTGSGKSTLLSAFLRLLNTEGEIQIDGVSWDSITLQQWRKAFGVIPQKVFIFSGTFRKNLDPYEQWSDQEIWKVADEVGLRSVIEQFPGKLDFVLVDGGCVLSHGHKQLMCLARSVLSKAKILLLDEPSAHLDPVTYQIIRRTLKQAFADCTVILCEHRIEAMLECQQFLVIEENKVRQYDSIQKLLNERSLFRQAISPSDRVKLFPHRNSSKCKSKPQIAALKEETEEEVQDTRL

SMILES	inhibition at 250 µM [1]	inhibition at 1000 µM [2]	effect on Cl- current previously activated by cAMP agonists	relative potency of inhibition of CFTR Cl- currents	further results
CC1=NS(=O)(=O)c2cc(Cl)ccc2N1 [diazoxide]	> 70%	> 70%	inhibited	–	effect on baseline currents (100-1,000 μM): no effect
COc1ccc(Cl)cc1C(=O)NCCc1ccc(S(=O)(=O)NC(=O)NC2CCCCC2)cc1 [glibenclamide]	–	–	–	–	inhibition at 100 µM (NIH3T3, read-out: inhibition of CFTR Cl- currents): > 90%; reversibility of inhibition of CFTR Cl- currents on washing (prolonged washing): irreversible
CC1(C)Oc2ccc(C#N)cc2[C@@H](N2CCCC2=O)[C@@H]1O [lemakalim]	> 70%	–	inhibited	more potent than diazoxide	effect on baseline currents (250 μM): no effect
Nc1cc(N2CCCCC2)nc(N)[n+]1OS(=O)(=O)[O-] [minoxidil sulfate]	–	–	inhibited	more potent than lemakalim	effect on baseline currents (10-500 μM): no effect; inhibition at 100 µM (NIH3T3, 100 μM, 3 min after adding, currents activated by cAMP agonists, read-out: inhibition of CFTR Cl- currents): > 70%
CCCCNC(=O)NS(=O)(=O)c1ccc(C)cc1 [tolbutamide]	–	> 90%	–	–	voltage dependence of inhibition of CFTR Cl- currents (500 μM): little voltage dependence; effect on CFTR Cl- currents (500 μM, currents activated by cAMP agonists): inhibited; reversibility of inhibition of CFTR Cl- currents on washing (washes lasting >10 min): partially recovered
